Values of other authors, collected in patent US11141509B2, “Method for loading at least two powder substances into recesses provided at a stent surface” (CID S.p.A., priority 2016, dated 2021).

Details: Cre8 coronary stent, Amphilimus formulation; Eurointervention 2012; 7:1087-1094

CO[C@H]1C[C@@H]2CC[C@@H](C)[C@@](O)(O2)C(=O)C(=O)N2CCCC[C@H]2C(=O)O[C@H]([C@H](C)C[C@@H]2CC[C@@H](O)[C@H](OC)C2)CC(=O)[C@H](C)/C=C(\C)[C@@H](O)[C@@H](OC)C(=O)[C@H](C)C[C@H](C)/C=C/C=C/C=C/1C [Sirolimus]
in vivo release after coronary implantation: greater than 30 days
